In US7709636B2, “Pyrazole sulfonylurea compound and herbicide” (Nissan Chemical Industries, Ltd., priority 2004, dated 2010):

Key:
Scirpus juncoides [1] = assay: Herbicidal effect test in submerged condition by treatment during weed-growth stage (1); type: in vivo; conditions: 0.64 g/a, treated at 1st to 2nd leaf stage, 3 weeks after treatment
Procedure, shortened: (§1)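 Paddy-soil pots flooded to 4 cm water depth were sown and grown in a greenhouse at 25 to 30° C until weeds reached 1st to 2nd leaf stage. A wettable powder diluted in water to a predetermined formulation amount was applied to the water surface. Herbicidal effect was scored 3 weeks after treatment against set criteria.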

Monochoria vaginalis [2] = assay: as above; type: in vivo; conditions: 0.64 g/a, treated at 1st to 2nd leaf stage, 3 weeks after treatment
Procedure, shortened: as §1

Echinochloa crus-galli [3] = assay: as above; type: in vivo; conditions: 0.64 g/a, treated at 1st to 2nd leaf stage, 3 weeks after treatment
Procedure, shortened: as §1

Scirpus juncoides [4] = assay: Herbicidal effect test in submerged condition by treatment before weed-generation (1); type: in vivo; conditions: 0.64 g/a, water surface treated on day of sowing, 3 weeks after treatment
Procedure, shortened: (§2)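 Treatment was made before weed emergence by applying the diluted wettable powder to the flood water (4 cm) on the day of sowing, with rice transplanted at the 2.5th leaf stage. After 3 weeks in a greenhouse (25 to 30° C), effect was graded 0–5.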

Monochoria vaginalis [5] = assay: as above; type: in vivo; conditions: 0.64 g/a, water surface treated on day of sowing, 3 weeks after treatment
Procedure, shortened: as §2

Echinochloa crus-galli [6] = assay: as above; type: in vivo; conditions: 0.64 g/a, water surface treated on day of sowing, 3 weeks after treatment
Procedure, shortened: as §2

[7] = system: rice transplanted at a depth of 0 cm; assay: Herbicidal effect test in submerged condition by treatment before weed-generation (2); type: in vivo, Oryza sativa; conditions: 0.3 g/a; submerged paddy soil pot, seedlings fixed to paddy surface with roots exposed; 3 weeks after treatment
Method: (§3) Herbicidal Effect Test in Submerged Condition by Treatment Before Weed-Generation (2)
(§4) Paddy surface soil was placed in a plastic pot of 1/10000 are, water was poured therein and mixed. After seeds of Scirpus juncoides were sown, paddy surface soil was added by 2 cm, and submerged with water, and then seeds of Echinochloa crus-galli, Scirpus juncoides, Monochoria vaginalis, Rotala indica and Lindernia pyxidaria were sown together. In addition, rice seedlings at 2.5th leaf stage were transplanted, and fixed to the paddy surface in a state where the roots were exposed on the other side. On the day when the seeds were sown, the wettable powder of the present invention prepared according to Formulation Example 1 was diluted with water so as to give a predetermined formulation amount, and the surface of the water was treated with the diluted wettable powder. The plants were grown by putting the pot in a green house at 25 to 30° C. The herbicidal effect for each plant was investigated 3 weeks after treatment with the herbicide according to the criteria indicated in Test Example 1.

[8] = system: transplanted rice (Oryza sativa); assay: Crop injury test on rice in water leakage condition; type: in vivo; conditions: 0.15 g/a; water leakage 2 cm/day x 3 days; treated on third day after transplantation; 3 weeks after treatment
Method: Crop Injury Test on Rice in Water Leakage Condition A mixed soil of alluvial soil and diluvial soil was placed in a plastic pot perforated at the bottom of 1/10000 are, water was poured therein and mixed, and then rice seedlings at 2.5th leaf stage were transplanted. Water leakage treatment was carried out by placing the pot in a plastic vat, and controlling the amount of water in the vat kept at a condition of 2 cm/day×3 days. The pot was put in a green house at 25 to 30° C., on third day after transplantation, the wettable powder of the present invention prepared according to Formulation Example 1 was diluted with water so as to give a predetermined formulation amount, and the surface of the water was treated with the diluted wettable powder. The crop injury on rice was investigated 3 weeks after treatment with the herbicide according to the criteria indicated in Test Example 1.

[9] = system: transplanted rice (Oryza sativa); assay: Herbicidal effect test in submerged condition by treatment before weed-generation (2); type: in vivo; conditions: 0.3 g/a; submerged paddy soil pot, rice seedlings at 2.5th leaf stage transplanted; 3 weeks after treatment
Method: as §3, §4

Lindernia pyxidaria = assay: as above; type: in vivo; conditions: 0.3 g/a; submerged paddy soil pot, water surface treated on day of sowing; 3 weeks after treatment
Method: as §3, §4

Rotala indica = assay: as above; type: in vivo; conditions: 0.3 g/a; submerged paddy soil pot, water surface treated on day of sowing; 3 weeks after treatment
Method: as §3, §4

Scirpus juncoides [10] = assay: as above; type: in vivo; conditions: 0.3 g/a; submerged paddy soil pot, water surface treated on day of sowing; 3 weeks after treatment
Method: as §3, §4

Monochoria vaginalis [11] = assay: as above; type: in vivo; conditions: 0.3 g/a; submerged paddy soil pot, water surface treated on day of sowing; 3 weeks after treatment
Method: as §3, §4

Echinochloa crus-galli [12] = assay: as above; type: in vivo; conditions: 0.3 g/a; submerged paddy soil pot, water surface treated on day of sowing; 3 weeks after treatment
Method: as §3, §4

SMILES	herbicidal effect, B: Scirpus juncoides (Scirpus juncoides [1])	herbicidal effect, C: Monochoria vaginalis (Monochoria vaginalis [2])	herbicidal effect, A: Echinochloa crus-galli (Echinochloa crus-galli [3])	herbicidal effect, B: Scirpus juncoides (Scirpus juncoides [4])	herbicidal effect, C: Monochoria vaginalis (Monochoria vaginalis [5])	herbicidal effect, A: Echinochloa crus-galli (Echinochloa crus-galli [6])	herbicidal effect, g: rice transplanted at a depth of 0 cm [7]	crop injury on rice, a: transplanted rice (Oryza sativa) [8]	herbicidal effect, a: transplanted rice (Oryza sativa) [9]	herbicidal effect, O: Lindernia pyxidaria (Lindernia pyxidaria)	herbicidal effect, N: Rotala indica (Rotala indica)	herbicidal effect, B: Scirpus juncoides (Scirpus juncoides [10])	herbicidal effect, C: Monochoria vaginalis (Monochoria vaginalis [11])	herbicidal effect, A: Echinochloa crus-galli (Echinochloa crus-galli [12])
COc1cc(OC)nc(NC(=O)NS(=O)(=O)c2c(C3=NOCCO3)c(Cl)nn2C)n1 [Comparative Compound 1]	5 (Herbicidal rate 90% or more (almost complete death))	5 (Herbicidal rate 90% or more (almost complete death))	5 (Herbicidal rate 90% or more (almost complete death))	5 (Herbicidal rate 90% or more (almost complete death))	5 (Herbicidal rate 90% or more (almost complete death))	5 (Herbicidal rate 90% or more (almost complete death))	3 (Herbicidal rate 40% or more and less than 70%)	3 (Herbicidal rate 40% or more and less than 70%)	0 (Herbicidal rate 5% or less (little effect))	5 (Herbicidal rate 90% or more (almost complete death))	5 (Herbicidal rate 90% or more (almost complete death))	5 (Herbicidal rate 90% or more (almost complete death))	5 (Herbicidal rate 90% or more (almost complete death))	5 (Herbicidal rate 90% or more (almost complete death))
COc1cc(OC)nc(NC(=O)NS(=O)(=O)c2c(C3=NOCCO3)c(C)nn2C)n1 [Comparative Compound 2]	5 (Herbicidal rate 90% or more (almost complete death))	5 (Herbicidal rate 90% or more (almost complete death))	5 (Herbicidal rate 90% or more (almost complete death))	5 (Herbicidal rate 90% or more (almost complete death))	5 (Herbicidal rate 90% or more (almost complete death))	5 (Herbicidal rate 90% or more (almost complete death))	4 (Herbicidal rate 70% or more and less than 90%)	5 (Herbicidal rate 90% or more (almost complete death))	4 (Herbicidal rate 70% or more and less than 90%)	5 (Herbicidal rate 90% or more (almost complete death))	5 (Herbicidal rate 90% or more (almost complete death))	5 (Herbicidal rate 90% or more (almost complete death))	5 (Herbicidal rate 90% or more (almost complete death))	5 (Herbicidal rate 90% or more (almost complete death))
